Assay results as given in patent US8129417B2, “Substituted octahydrocyclopenta[C]pyrrol-4-amines as calcium channel blockers” (Abbott Laboratories, priority 2008, dated 2012).
pIC50: −log10 of the molar value.

Each compound was assayed against human Cav2.2 (Homo sapiens, UniProt Q00975) (assay: Assessment of calcium channel activity using FLIPR (Ca2+ influx in IMR32 cells)). Settings: 3 minute pre-incubation with compound (*), 2 μM nifedipine, depolarized with 80 mM KCl.
Chain of human Cav2.2 (Q00975 whole entry): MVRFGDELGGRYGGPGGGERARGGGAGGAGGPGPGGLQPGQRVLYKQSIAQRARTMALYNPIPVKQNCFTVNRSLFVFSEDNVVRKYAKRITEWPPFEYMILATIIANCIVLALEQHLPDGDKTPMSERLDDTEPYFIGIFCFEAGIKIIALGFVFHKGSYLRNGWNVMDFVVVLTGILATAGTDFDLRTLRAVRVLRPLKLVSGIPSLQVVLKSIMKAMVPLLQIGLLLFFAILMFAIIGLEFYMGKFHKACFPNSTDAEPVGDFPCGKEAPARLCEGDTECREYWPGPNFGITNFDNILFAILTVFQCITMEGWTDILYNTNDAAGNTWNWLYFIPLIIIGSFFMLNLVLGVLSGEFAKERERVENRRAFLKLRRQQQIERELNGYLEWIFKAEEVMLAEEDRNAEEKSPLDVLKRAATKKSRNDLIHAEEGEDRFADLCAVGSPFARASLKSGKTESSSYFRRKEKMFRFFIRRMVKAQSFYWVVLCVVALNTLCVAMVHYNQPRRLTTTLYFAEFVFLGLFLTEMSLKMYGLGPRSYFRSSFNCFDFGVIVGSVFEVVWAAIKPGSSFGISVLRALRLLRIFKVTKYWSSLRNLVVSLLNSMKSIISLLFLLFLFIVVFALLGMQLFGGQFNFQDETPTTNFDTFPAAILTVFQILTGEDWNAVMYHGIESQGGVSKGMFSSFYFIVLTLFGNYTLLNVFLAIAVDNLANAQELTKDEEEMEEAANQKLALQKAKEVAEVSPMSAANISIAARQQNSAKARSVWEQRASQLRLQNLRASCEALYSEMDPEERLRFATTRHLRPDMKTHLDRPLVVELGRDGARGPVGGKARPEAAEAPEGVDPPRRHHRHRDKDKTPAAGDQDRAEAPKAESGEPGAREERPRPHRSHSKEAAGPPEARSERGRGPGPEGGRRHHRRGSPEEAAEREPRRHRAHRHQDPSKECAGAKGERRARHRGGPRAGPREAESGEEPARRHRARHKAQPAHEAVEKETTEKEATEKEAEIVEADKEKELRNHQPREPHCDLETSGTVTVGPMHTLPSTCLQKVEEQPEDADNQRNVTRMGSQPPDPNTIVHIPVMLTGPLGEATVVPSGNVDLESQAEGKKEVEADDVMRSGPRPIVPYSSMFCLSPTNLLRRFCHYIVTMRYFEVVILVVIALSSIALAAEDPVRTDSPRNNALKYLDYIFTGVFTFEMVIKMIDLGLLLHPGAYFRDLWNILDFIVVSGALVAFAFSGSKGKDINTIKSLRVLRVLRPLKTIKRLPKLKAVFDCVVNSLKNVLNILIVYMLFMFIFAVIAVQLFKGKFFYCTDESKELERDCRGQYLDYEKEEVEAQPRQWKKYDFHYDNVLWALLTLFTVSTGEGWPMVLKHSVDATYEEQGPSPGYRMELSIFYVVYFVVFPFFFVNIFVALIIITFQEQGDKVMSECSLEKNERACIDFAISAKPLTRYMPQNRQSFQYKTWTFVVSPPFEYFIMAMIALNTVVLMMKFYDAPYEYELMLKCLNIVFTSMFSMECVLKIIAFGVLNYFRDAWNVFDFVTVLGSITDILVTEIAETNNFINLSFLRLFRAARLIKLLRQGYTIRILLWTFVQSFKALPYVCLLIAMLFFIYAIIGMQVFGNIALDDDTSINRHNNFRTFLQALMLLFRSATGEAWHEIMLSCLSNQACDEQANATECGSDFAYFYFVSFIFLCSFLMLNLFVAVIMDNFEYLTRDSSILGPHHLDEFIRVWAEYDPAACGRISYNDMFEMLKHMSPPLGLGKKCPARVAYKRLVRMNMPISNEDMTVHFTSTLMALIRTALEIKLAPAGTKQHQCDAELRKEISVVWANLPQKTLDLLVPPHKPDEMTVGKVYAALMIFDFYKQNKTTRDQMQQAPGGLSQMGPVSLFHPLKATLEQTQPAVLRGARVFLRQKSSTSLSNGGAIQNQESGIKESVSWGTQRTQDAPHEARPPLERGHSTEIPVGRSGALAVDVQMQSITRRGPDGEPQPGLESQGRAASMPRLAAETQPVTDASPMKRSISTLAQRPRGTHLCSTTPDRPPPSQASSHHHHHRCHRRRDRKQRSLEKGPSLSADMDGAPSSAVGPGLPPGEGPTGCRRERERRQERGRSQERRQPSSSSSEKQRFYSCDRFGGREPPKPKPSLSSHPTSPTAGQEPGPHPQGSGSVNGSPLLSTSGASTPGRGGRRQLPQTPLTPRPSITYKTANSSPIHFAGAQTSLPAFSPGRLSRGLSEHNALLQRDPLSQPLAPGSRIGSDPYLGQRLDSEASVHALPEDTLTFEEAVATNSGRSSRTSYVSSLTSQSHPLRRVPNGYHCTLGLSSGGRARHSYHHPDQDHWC
Chain of human Cav2.2 (P54289 25-946 partner limits assumed): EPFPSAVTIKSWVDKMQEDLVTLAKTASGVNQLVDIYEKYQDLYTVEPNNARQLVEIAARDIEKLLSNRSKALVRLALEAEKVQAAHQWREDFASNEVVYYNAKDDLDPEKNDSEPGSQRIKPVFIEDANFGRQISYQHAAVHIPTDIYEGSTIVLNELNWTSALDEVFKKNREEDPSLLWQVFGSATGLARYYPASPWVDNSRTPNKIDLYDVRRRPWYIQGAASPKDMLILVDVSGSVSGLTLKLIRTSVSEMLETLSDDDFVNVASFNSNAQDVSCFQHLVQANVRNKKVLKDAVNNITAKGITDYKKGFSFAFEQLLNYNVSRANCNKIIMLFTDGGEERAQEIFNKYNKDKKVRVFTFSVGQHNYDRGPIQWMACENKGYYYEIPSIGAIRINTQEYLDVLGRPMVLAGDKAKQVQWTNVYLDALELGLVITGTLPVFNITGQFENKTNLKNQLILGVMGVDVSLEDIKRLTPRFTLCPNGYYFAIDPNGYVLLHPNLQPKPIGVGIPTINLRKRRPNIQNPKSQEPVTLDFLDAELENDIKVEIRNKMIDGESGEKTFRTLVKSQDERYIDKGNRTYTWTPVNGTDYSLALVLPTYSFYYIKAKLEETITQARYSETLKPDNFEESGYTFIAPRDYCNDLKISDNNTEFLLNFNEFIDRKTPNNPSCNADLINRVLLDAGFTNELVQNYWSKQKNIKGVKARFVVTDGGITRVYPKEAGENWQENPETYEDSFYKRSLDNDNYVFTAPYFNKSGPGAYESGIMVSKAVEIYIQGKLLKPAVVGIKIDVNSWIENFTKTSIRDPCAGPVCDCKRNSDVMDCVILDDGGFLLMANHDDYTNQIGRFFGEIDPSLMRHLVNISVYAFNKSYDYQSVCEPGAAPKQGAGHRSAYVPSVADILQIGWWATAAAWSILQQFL
Chain of human Cav2.2 (P54289 947-1103 partner limits assumed): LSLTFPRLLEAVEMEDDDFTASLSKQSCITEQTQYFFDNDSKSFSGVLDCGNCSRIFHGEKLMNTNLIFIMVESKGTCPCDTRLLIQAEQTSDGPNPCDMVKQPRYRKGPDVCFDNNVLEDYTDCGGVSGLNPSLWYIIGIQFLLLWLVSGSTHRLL
Chain of human Cav2.2 (P54284 whole entry partner): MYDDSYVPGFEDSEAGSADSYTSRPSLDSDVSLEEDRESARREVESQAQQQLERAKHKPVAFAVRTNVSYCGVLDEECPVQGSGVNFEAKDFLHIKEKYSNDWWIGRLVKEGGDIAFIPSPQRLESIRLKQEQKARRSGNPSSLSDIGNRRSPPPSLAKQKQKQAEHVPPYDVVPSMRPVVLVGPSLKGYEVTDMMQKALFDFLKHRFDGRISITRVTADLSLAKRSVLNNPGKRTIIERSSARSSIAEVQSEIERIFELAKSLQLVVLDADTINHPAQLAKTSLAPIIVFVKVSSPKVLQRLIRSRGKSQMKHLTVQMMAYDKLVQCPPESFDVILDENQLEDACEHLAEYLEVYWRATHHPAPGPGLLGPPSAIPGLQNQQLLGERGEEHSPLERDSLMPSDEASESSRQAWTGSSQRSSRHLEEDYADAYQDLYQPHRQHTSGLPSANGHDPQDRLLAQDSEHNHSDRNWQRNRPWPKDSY
Assay type: cell-based
Experimental: (i) In Vitro Methods—Assessment of Calcium Channel Activity Using FLIPR:
The IMR32 cells were maintained in MEM media containing 10% (v/v) FBS, 1% (v/v) antibiotic/antimitotic, 1% (v/v) sodium pyruvate and 1% (v/v) MEM NEAA. Following dissociation in 0.05% (v/v) trypsin/EDTA, cells were seeded into black 1×96-well plates (Corning Cellbind) at a density of 1-1.2×10^5 cells/well and incubated in the maintenance media above for 48 hours at 37° C. […] To determine the IC50 values, the percent inhibition of the compound at each concentration was determined relative to the activity in the absence of inhibitor, and data was fitted using non-linear regression sigmoidal dose response curve analysis with GraphPad Prism®.
Work on `O=C(N[C@@H]1CC[C@H]2CNC[C@H]21)C(C1CCCCC1)C1CCCCC1` [Example 74, 2,2-dicyclohexyl-N-[(3aS,4R,6aR)-octahydrocyclopenta[c]pyrrol-4-yl]acetamide] yielded a pIC50 of 4.95.
`COc1ccc(CN2C[C@H]3CC[C@H](NC(=O)C(c4ccccc4)C(C)C)[C@H]3C2)cc1` (stereo partly drawn) [Example 96, N-[(3aR,4S,6aS)-2-(4-methoxybenzyl)octahydrocyclopenta[c]pyrrol-4-yl]-3-methyl-2-phenylbutanamide] was tested, and the pIC50 was 5.62.
For `CC(C)C(C(=O)N[C@H]1CC[C@@H]2CN(Cc3cccc(C#N)c3)C[C@@H]21)c1ccccc1` (stereo partly drawn) [Example 97, N-[(3aR,4S,6aS)-2-(3-cyanobenzyl)octahydrocyclopenta[c]pyrrol-4-yl]-3-methyl-2-phenylbutanamide], the pIC50 was 5.28.
In the case of `CC(C)C(C(=O)N[C@H]1CC[C@@H]2CN(Cc3ccc(C(F)(F)F)cc3)C[C@@H]21)c1ccccc1` (stereo partly drawn) [Example 98, 3-methyl-2-phenyl-N-{(3aR,4S,6aS)-2-[4-(trifluoromethyl)benzyl]octahydrocyclopenta[c]pyrrol-4-yl}butanamide], the pIC50 was 5.31.
Work on `CC(C)C(C(=O)N[C@H]1CC[C@@H]2CN(Cc3ccccc3C(F)(F)F)C[C@@H]21)c1ccccc1` (stereo partly drawn) [Example 99, 3-methyl-2-phenyl-N-{(3aR,4S,6aS)-2-[2-(trifluoromethyl)benzyl]octahydrocyclopenta[c]pyrrol-4-yl}butanamide] yielded a pIC50 of 5.32.
`CC(C)C(C(=O)N[C@H]1CC[C@@H]2CN(Cc3ccc(F)c(C(F)(F)F)c3)C[C@@H]21)c1ccccc1` (stereo partly drawn) [Example 100, N-{(3aR,4S,6aS)-2-[4-fluoro-3-(trifluoromethyl)benzyl]octahydrocyclopenta[c]pyrrol-4-yl}-3-methyl-2-phenylbutanamide] was tested, and the pIC50 was 5.38.
Compound `CC(C)C(C(=O)N[C@H]1CC[C@@H]2CN(Cc3ccc(C(F)(F)F)c(F)c3)C[C@@H]21)c1ccccc1` (stereo partly drawn) [Example 101, N-{(3aR,4S,6aS)-2-[3-fluoro-4-(trifluoromethyl)benzyl]octahydrocyclopenta[c]pyrrol-4-yl}-3-methyl-2-phenylbutanamide] has a pIC50 of 5.33.
In the case of `CC(C)C(C(=O)N[C@H]1CC[C@@H]2CN(Cc3ccncc3)C[C@@H]21)c1ccccc1` (stereo partly drawn) [Example 103, 3-methyl-2-phenyl-N-[(3aR,4S,6aS)-2-(pyridin-4-ylmethyl)octahydrocyclopenta[c]pyrrol-4-yl]butanamide], the pIC50 was 4.51.
With `CC(C)C(C(=O)N[C@H]1CC[C@@H]2CN(CCCc3ccc(C(C)(C)C)cc3)C[C@@H]21)c1ccccc1` (stereo partly drawn) [Example 106, N-{(3aR,4S,6aS)-2-[3-(4-tert-butylphenyl)propyl]octahydrocyclopenta[c]pyrrol-4-yl}-3-methyl-2-phenylbutanamide] the pIC50 was 5.24.
For `Cc1ccccc1CCCN1C[C@H]2CC[C@H](NC(=O)C(c3ccccc3)C(C)C)[C@H]2C1` (stereo partly drawn) [Example 108, 3-methyl-N-{(3aR,4S,6aS)-2-[3-(2-methylphenyl)propyl]octahydrocyclopenta[c]pyrrol-4-yl}-2-phenylbutanamide], the pIC50 was 4.95.
`CC(C)C(C(=O)N[C@H]1CC[C@@H]2CN(CCCc3cccc(Cl)c3)C[C@@H]21)c1ccccc1` (stereo partly drawn) [Example 109, N-{(3aR,4S,6aS)-2-[3-(3-chlorophenyl)propyl]octahydrocyclopenta[c]pyrrol-4-yl}-3-methyl-2-phenylbutanamide] showed a pIC50 of 5.05.
For `Cc1cccc(CCCN2C[C@H]3CC[C@H](NC(=O)C(c4ccccc4)C(C)C)[C@H]3C2)c1` (stereo partly drawn) [Example 110, 3-methyl-N-{(3aR,4S,6aS)-2-[3-(3-methylphenyl)propyl]octahydrocyclopenta[c]pyrrol-4-yl}-2-phenylbutanamide], the pIC50 was 5.70.
Work on `CC(C)C(C(=O)N[C@H]1CC[C@@H]2CN(CCCc3cccc(C(F)(F)F)c3)C[C@@H]21)c1ccccc1` (stereo partly drawn) [Example 111, 3-methyl-2-phenyl-N-((3aR,4S,6aS)-2-{3-[3-(trifluoromethyl)phenyl]propyl}octahydrocyclopenta[c]pyrrol-4-yl)butanamide] yielded a pIC50 of 5.66.
For `CC(C)C(C(=O)N[C@H]1CC[C@@H]2CN(CCCc3cccc(F)c3)C[C@@H]21)c1ccccc1` (stereo partly drawn) [Example 112, N-{(3aR,4S,6aS)-2-[3-(3-fluorophenyl)propyl]octahydrocyclopenta[c]pyrrol-4-yl}-3-methyl-2-phenylbutanamide], the pIC50 was 5.55.
With `CC(C)C(C(=O)N[C@H]1CC[C@@H]2CN(CCCCc3ccccc3)C[C@@H]21)c1ccccc1` (stereo partly drawn) [Example 113, 3-methyl-2-phenyl-N-[(3aR,4S,6aS)-2-(4-phenylbutyl)octahydrocyclopenta[c]pyrrol-4-yl]butanamide] the pIC50 was 5.51.

Same assay, conditions: 60 minute pre-incubation with compound, 2 μM nifedipine, depolarized with 80 mM KCl
In the case of `O=C(N[C@H]1CC[C@H]2CN(CCC(c3ccc(F)cc3)c3ccc(F)cc3)C[C@H]21)C(C1CCCCC1)C1CCCCC1` [Example 65, N-{(3aS,4S,6aR)-2-[3,3-bis(4-fluorophenyl)propyl]octahydrocyclopenta[c]pyrrol-4-yl}-2,2-dicyclohexylacetamide], the pIC50 was 5.35.
With `O=C(N[C@H]1CC[C@H]2CN(CCCCCC(c3ccc(F)cc3)c3ccc(F)cc3)C[C@H]21)C(C1CCCCC1)C1CCCCC1` [Example 66, N-{(3aS,4S,6aR)-2-[6,6-bis(4-fluorophenyl)hexyl]octahydrocyclopenta[c]pyrrol-4-yl}-2,2-dicyclohexylacetamide] the pIC50 was 6.05.
With `O=C(N[C@H]1CC[C@H]2CN(CCCc3cccc(F)c3)C[C@H]21)C(C1CCCCC1)C1CCCCC1` [Example 68, 2,2-dicyclohexyl-N-{(3aS,4S,6aR)-2-[3-(3-fluorophenyl)propyl]octahydrocyclopenta[c]pyrrol-4-yl}acetamide] the pIC50 was 5.77.
`O=C(N[C@H]1CC[C@H]2CN(CCCc3ccc(F)cc3)C[C@H]21)C(C1CCCCC1)C1CCCCC1` [Example 71, 2,2-dicyclohexyl-N-{(3aS,4S,6aR)-2-[3-(4-fluorophenyl)propyl]octahydrocyclopenta[c]pyrrol-4-yl}acetamide] showed a pIC50 of 5.92.
Compound `O=C(N[C@@H]1CC[C@H]2CN(CCCCCC(c3ccc(F)cc3)c3ccc(F)cc3)C[C@H]21)C(C1CCCCC1)C1CCCCC1` [Example 78, N-{(3aS,4R,6aR)-2-[6,6-bis(4-fluorophenyl)hexyl]octahydrocyclopenta[c]pyrrol-4-yl}-2,2-dicyclohexylacetamide] has a pIC50 of 6.40.
With `CC(C)C(C(=O)N[C@H]1CC[C@@H]2CN(CCCc3ccccc3)C[C@@H]21)c1ccccc1` (stereo partly drawn) [Example 105, 3-methyl-2-phenyl-N-[(3aR,4S,6aS)-2-(3-phenylpropyl)octahydrocyclopenta[c]pyrrol-4-yl]butanamide] the pIC50 was 5.82.
Compound `CC(C)C(C(=O)N[C@H]1CC[C@@H]2CN(CCCc3ccc(C(F)(F)F)cc3)C[C@@H]21)c1ccccc1` (stereo partly drawn) [Example 115, 3-methyl-2-phenyl-N-((3aR,4S,6aS)-2-{3-[4-(trifluoromethyl)phenyl]propyl}octahydrocyclopenta[c]pyrrol-4-yl)butanamide] has a pIC50 of 5.92.
`O=C(N[C@H]1CC[C@H]2CN(Cc3cccc(C(F)(F)F)c3)C[C@H]21)C(O)(C1CCCCC1)C1CCCCC1` [Example 152, 2,2-dicyclohexyl-2-hydroxy-N-{(3aS,4S,6aR)-2-[3-(trifluoromethyl)benzyl]octahydrocyclopenta[c]pyrrol-4-yl}acetamide] was tested, and the pIC50 was 6.10.
`CC(C)C[C@@H](C(=O)N[C@H]1CC[C@H]2CN(Cc3cccc(C(F)(F)F)c3)C[C@H]21)N(C)C(=O)OC(C)(C)C` [Example 153, N^2-(tert-butyloxycarbonyl)-N^2-methyl-N^1-{(3aS,4S,6aR)-2-[3-(trifluoromethyl)benzyl]octahydrocyclopenta[c]pyrrol-4-yl}-L-leucinamide] showed a pIC50 of 6.40.
Work on `CC(=O)N(C)[C@@H](CC(C)C)C(=O)N[C@H]1CC[C@H]2CN(Cc3cccc(C(F)(F)F)c3)C[C@H]21` [Example 175, N^2-acetyl-N^2-methyl-N^1-{(3aS,4S,6aR)-2-[3-(trifluoromethyl)benzyl]octahydrocyclopenta[c]pyrrol-4-yl}-L-leucinamide] yielded a pIC50 of 5.82.
With `O=S(=O)(N[C@@H]1CC[C@@H]2CN(Cc3cccc(C(F)(F)F)c3)C[C@@H]21)c1cccc(C(F)(F)F)c1` [Example 188, 3-(trifluoromethyl)-N-{(3aR,4R,6aS)-2-[3-(trifluoromethyl)benzyl]octahydrocyclopenta[c]pyrrol-4-yl}benzenesulfonamide] the pIC50 was 6.10.
Compound `O=S(=O)(N[C@@H]1CC[C@H]2CN(Cc3ccccc3)C[C@H]21)c1cccc(C(F)(F)F)c1` [Example 190, N-[(3aS,4R,6aR)-2-benzyloctahydrocyclopenta[c]pyrrol-4-yl]-3-(trifluoromethyl)benzenesulfonamide] has a pIC50 of 5.89.
Compound `O=S(=O)(N[C@@H]1CC[C@H]2CN(Cc3ccc(C(F)(F)F)c(F)c3)C[C@H]21)c1cccc(C(F)(F)F)c1` [Example 194, N-{(3aS,4R,6aR)-2-[3-fluoro-4-(trifluoromethyl)benzyl]octahydrocyclopenta[c]pyrrol-4-yl}-3-(trifluoromethyl)benzenesulfonamide] has a pIC50 of 5.85.

Same assay, conditions: IMR-32, @ 10 μM, 3 minute pre-incubation (*), read-out: percent inhibition
Compound `CC(C)C(C(=O)N[C@H]1CC[C@@H]2CN(C)C[C@@H]21)c1ccccc1` (stereo partly drawn) [Example 84, 3-methyl-N-[(3aR,4S,6aS)-2-methyloctahydrocyclopenta[c]pyrrol-4-yl]-2-phenylbutanamide] has an inhibition at 10 µM of 5.8%.
With `COc1cccc(CN2C[C@H]3CC[C@H](NC(=O)C(c4ccccc4)C(C)C)[C@H]3C2)c1` (stereo partly drawn) [Example 90, N-[(3aR,4S,6aS)-2-(3-methoxybenzyl)octahydrocyclopenta[c]pyrrol-4-yl]-3-methyl-2-phenylbutanamide] the inhibition at 10 µM was 83%.
Compound `CC(C)C(C(=O)N[C@H]1CC[C@@H]2CN(CCc3ccccc3)C[C@@H]21)c1ccccc1` (stereo partly drawn) [Example 104, 3-methyl-2-phenyl-N-[(3aR,4S,6aS)-2-(2-phenylethyl)octahydrocyclopenta[c]pyrrol-4-yl]butanamide] has an inhibition at 10 µM of 79%.
